A short description of data set [1]: Antimelanogenic activity in mouse B16-4A5 cells assessed as inhibition of theophylline-induced melanin production at 0.1 uM after 72 hrs by spectrophotometry relative to control. It counts as functional. The following applies: B16-4A5, 72 h.
Data set [2] in a line: Antimelanogenic activity in mouse B16-4A5 cells assessed as inhibition of theophylline-induced melanin production at 10 uM after 72 hrs by spectrophotometry relative to control. It counts as functional. The following applies: B16-4A5, 72 h.
Data set [3] concerns the target T1, Tyrosinase (Agaricus bisporus) (UniProt O42713).
T1 sequence (whole entry): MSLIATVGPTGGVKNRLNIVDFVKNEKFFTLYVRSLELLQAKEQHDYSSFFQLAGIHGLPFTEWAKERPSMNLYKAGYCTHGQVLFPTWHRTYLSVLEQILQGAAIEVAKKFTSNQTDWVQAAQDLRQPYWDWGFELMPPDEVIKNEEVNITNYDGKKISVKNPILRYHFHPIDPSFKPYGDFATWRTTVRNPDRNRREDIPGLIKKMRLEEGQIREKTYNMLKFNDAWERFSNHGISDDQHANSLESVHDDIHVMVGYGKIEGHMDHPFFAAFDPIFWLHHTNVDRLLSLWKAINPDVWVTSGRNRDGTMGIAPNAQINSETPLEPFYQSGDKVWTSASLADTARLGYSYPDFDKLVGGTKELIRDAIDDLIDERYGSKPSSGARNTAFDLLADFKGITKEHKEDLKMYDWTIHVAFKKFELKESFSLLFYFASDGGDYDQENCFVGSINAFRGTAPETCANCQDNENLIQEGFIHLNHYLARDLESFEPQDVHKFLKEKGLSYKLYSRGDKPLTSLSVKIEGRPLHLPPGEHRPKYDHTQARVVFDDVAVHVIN
Put plainly: Inhibition of mushroom tyrosinase at 10 uM.

Data set [4] in a line: Antimelanogenic activity in mouse B16-4A5 cells assessed as inhibition of theophylline-induced melanin production at 1 uM after 72 hrs by spectrophotometry relative to control. The format is functional. The following applies: B16-4A5, 72 h.
Data set [5] can be described thus: Cytotoxicity against mouse B16-4A5 cells assessed as cell viability at 10 uM after 70 hrs by WST-8 assay in presence of theophylline. The format is cell-based. The following applies: read-out: Activity.
The nature of data set [6]: Antimelanogenic activity in mouse B16-4A5 cells assessed as inhibition of theophylline-induced melanin production at 0.3 uM after 72 hrs by spectrophotometry relative to control. The format is functional. The conditions noted are these: B16-4A5, 72 h.
A short description of data set [7]: Cytotoxicity against mouse B16-4A5 cells assessed as cell viability at 3 uM after 70 hrs by WST-8 assay in presence of theophylline. The conditions noted are these: read-out: Activity. It counts as cell-based.
Data set [8] is described as follows: Antimelanogenic activity in mouse B16-4A5 cells assessed as inhibition of theophylline-induced melanin production at 3 uM after 72 hrs by spectrophotometry relative to control. The following applies: B16-4A5, 72 h. The format is functional.
Data set [9] in a line: Antimelanogenic activity in mouse B16-4A5 cells assessed as inhibition of theophylline-induced melanin production after 72 hrs by spectrophotometry relative to control. The format is functional, cell-based. The following applies: B16-4A5, 72 h.

The term inhibition denotes the relative decrease from the control value, in per cent. A word on the IC50: it is the concentration needed to halve the response being measured.

Consider `COc1cc(CC[C@@H](O)CC/C=C/c2ccc(O)cc2)ccc1O`, for which, in data set [1], the inhibition at 0.1 µM came to 13.7%. Also, the inhibition at 10 µM in data set [2] was determined as 37.8%. Also, in data set [3], the inhibition is below 17%. Also, in data set [4], the inhibition at 1 µM was determined as 28.9%. Also, the viability at 70 h, 10 µM in [5] was 76%. In addition, the inhibition at 0.3 µM in data set [6] is 8.9%. In data set [7], the viability at 70 h, 3 µM came out at 84.6%. The inhibition at 3 µM in data set [8] is 27.2%. In [9], the IC50 is above 10000 nM.
Take `Oc1ccc(CC[C@@H](O)C[C@H](O)CCc2ccc(O)c(O)c2)cc1`: the inhibition at 0.1 µM in [1] came to 7%. Also, the inhibition at 10 µM in [2] was -18.9%. Also, in data set [3], the inhibition is below 17%. Moreover, the inhibition at 1 µM in data set [4] is -22.7%. Moreover, the viability at 70 h, 10 µM in data set [5] was 92.3%. In data set [6], the inhibition at 0.3 µM is 8.9%. Also, the viability at 70 h, 3 µM in data set [7] came out at 95.2%. The inhibition at 3 µM in [8] was determined as 0.1%.
On to `CC(=O)O[C@H](CCc1ccc(O)c(O)c1)C[C@H](O)CCc1ccc(O)cc1`, for which, in [1], the inhibition at 0.1 µM was determined as 15.4%. Further, in [2], the inhibition at 10 µM came out at 59.9%. For the same compound, the inhibition in data set [3] was below 17%. In data set [4], the inhibition at 1 µM was 27.3%. Moreover, the viability at 70 h, 10 µM in data set [5] stood at 92.3%. The inhibition at 0.3 µM in data set [6] is 15.1%. Moreover, the viability at 70 h, 3 µM in [7] came out at 95.2%. Moreover, the inhibition at 3 µM in data set [8] is 21.8%. Besides, the IC50 in [9] amounted to 4910 nM.
`Oc1ccc(CC[C@@H](O)C[C@H](O)CCc2ccc(O)cc2)cc1` [(+)-HANNOKINOL]: the inhibition at 0.1 µM in data set [1] came out at 22%. Moreover, in data set [2], the inhibition at 10 µM came out at 21.9%. Besides, in data set [3], the inhibition is below 17%. In data set [4], the inhibition at 1 µM worked out at 15.7%. The viability at 70 h, 10 µM in data set [5] came to 92.3%. The inhibition at 0.3 µM in [6] is 20.3%. Also, in [7], the viability at 70 h, 3 µM amounted to 95.2%. Also, in [8], the inhibition at 3 µM was found to be 23.1%. In [9], the IC50 was above 10000 nM.
`CC(=O)O[C@H](CCc1ccc(O)c(O)c1)C[C@H](O)CCc1ccc(O)c(O)c1`: the inhibition at 0.1 µM in data set [1] was -1.6%. In addition, the inhibition at 10 µM in [2] came to 5.5%. Besides, in data set [3], the inhibition is below 17%. Moreover, the inhibition at 1 µM in data set [4] is -5.7%. Also, the viability at 70 h, 10 µM in data set [5] was 92.3%. Moreover, the inhibition at 0.3 µM in data set [6] is -9.9%. The viability at 70 h, 3 µM in data set [7] came to 95.2%. Moreover, the inhibition at 3 µM in data set [8] is 4.5%.
`O=C(/C=C/C=C/c1ccc(O)cc1)CCc1ccc(O)cc1`: in data set [1], the inhibition at 0.1 µM stood at 25.4%. Also, in data set [2], the inhibition at 10 µM amounted to 68.4%. Also, the inhibition in data set [3] was found to be 34.3%. Further, the inhibition at 1 µM in [4] was found to be 53.4%. The viability at 70 h, 10 µM in data set [5] was 92.3%. The inhibition at 0.3 µM in data set [6] was 31.7%. In addition, in [7], the viability at 70 h, 3 µM was determined as 95.2%. In addition, the inhibition at 3 µM in data set [8] was determined as 41.9%. For the same compound, the IC50 in [9] stood at 1990 nM.
Take `CC(=O)O[C@H](CCc1ccc(O)cc1)C[C@@H](CCc1ccc(O)c(O)c1)OC(C)=O`: the inhibition at 0.1 µM in [1] was determined as 3.6%. In data set [2], the inhibition at 10 µM worked out at 27.3%. Moreover, the inhibition in [3] is below 17%. Also, in [4], the inhibition at 1 µM turned out to be 8.1%. In [5], the viability at 70 h, 10 µM amounted to 92.3%. The inhibition at 0.3 µM in [6] came to 6.3%. Also, in data set [7], the viability at 70 h, 3 µM came out at 95.2%. Also, the inhibition at 3 µM in [8] was found to be 7.3%. Further, the IC50 in [9] is above 10000 nM.
As to `O=C(/C=C/C=C/c1ccc(O)c(O)c1)CCc1ccc(O)cc1`, the inhibition at 0.1 µM in data set [1] is 27.8%. Moreover, the inhibition at 10 µM in data set [2] came out at 16.3%. In addition, in [3], the inhibition was below 17%. The inhibition at 1 µM in [4] came out at 30.5%. In addition, the viability at 70 h, 10 µM in [5] was 92.3%. In addition, the inhibition at 0.3 µM in [6] is 37.8%. In addition, in data set [7], the viability at 70 h, 3 µM was 95.2%. Further, the inhibition at 3 µM in data set [8] came out at 23.4%.
Turning to `O=C(CCc1ccc(O)cc1)C[C@@H](O)CCc1ccc(O)cc1`, the inhibition in data set [3] was below 17%.
Take `O=C(CC/C=C/c1ccc(O)cc1)CCc1ccc(O)cc1`: in [1], the inhibition at 0.1 µM was determined as 21.2%. For the same compound, the inhibition at 10 µM in data set [2] is 57.1%. Also, in data set [3], the inhibition is below 17%. Moreover, in data set [4], the inhibition at 1 µM was 44.9%. Moreover, in [5], the viability at 70 h, 10 µM was found to be 71.6%. Besides, the inhibition at 0.3 µM in data set [6] stood at 29.9%. Moreover, the viability at 70 h, 3 µM in data set [7] is above 91.9%. Moreover, the inhibition at 3 µM in data set [8] came out at 61.4%. In data set [9], the 50% inhibitory concentration (IC50) came to 1240 nM.
Regarding `COc1cc(CC[C@H](O)C[C@H](O)CCc2cc(OC)c(O)c(OC)c2)ccc1O`, the inhibition at 0.1 µM in [1] was 35.4%. The inhibition at 10 µM in data set [2] was found to be 34.4%. Moreover, in data set [3], the inhibition was below 17%. The inhibition at 1 µM in data set [4] came to 38.4%. Also, in [5], the viability at 70 h, 10 µM turned out to be 92.3%. The inhibition at 0.3 µM in data set [6] is 43.2%. In addition, the viability at 70 h, 3 µM in data set [7] came out at 95.2%. Moreover, the inhibition at 3 µM in [8] came to 50.3%. Also, the IC50 in data set [9] came to 3000 nM.
On to `Oc1ccc(CC[C@H](O)C[C@H](O)CCc2ccc(O)c(O)c2)cc1`, for which, in [1], the inhibition at 0.1 µM was -0.7%. For the same compound, the inhibition in [3] was below 17%. The inhibition at 1 µM in data set [4] is -10.9%. In data set [5], the viability at 70 h, 10 µM is 71.6%. The inhibition at 0.3 µM in [6] was -3.7%. For the same compound, in data set [7], the viability at 70 h, 3 µM was above 91.9%. In addition, the inhibition at 3 µM in [8] was -23.7%.
For `COc1cc(CC[C@@H](O)C[C@@H](O)CCc2ccc(O)cc2)cc(OC)c1O`, the inhibition at 0.1 µM in data set [1] was 11.5%. Further, the inhibition at 10 µM in data set [2] worked out at 7.2%. The inhibition in data set [3] was below 17%. For the same compound, the inhibition at 1 µM in data set [4] amounted to 23.1%. In addition, the viability at 70 h, 10 µM in [5] turned out to be 92.3%. Further, the inhibition at 0.3 µM in data set [6] came to 23.2%. Besides, in [7], the viability at 70 h, 3 µM amounted to 95.2%. In addition, the inhibition at 3 µM in data set [8] was determined as 25%.
With `Oc1ccc(/C=C/CC[C@@H](O)CCc2ccc(O)cc2)cc1`, the inhibition at 0.1 µM in [1] is 27.7%. The inhibition at 10 µM in data set [2] is 90.5%. Further, the inhibition in data set [3] worked out at 25.5%. Besides, the inhibition at 1 µM in [4] was 67.3%. For the same compound, the viability at 70 h, 10 µM in data set [5] was determined as 93%. In addition, the inhibition at 0.3 µM in [6] came to 47.5%. Besides, the viability at 70 h, 3 µM in [7] amounted to 95.2%. Also, the inhibition at 3 µM in [8] stood at 79.3%. Further, the IC50 in data set [9] was 360 nM.
Consider `COc1cc(CC[C@@H](O)CC(=O)CCc2ccc(O)cc2)ccc1O`, for which the inhibition at 0.1 µM in data set [1] is 4%. In data set [2], the inhibition at 10 µM is -24.9%. The inhibition in data set [3] was below 17%. Also, in data set [4], the inhibition at 1 µM was 16.6%. Further, in data set [5], the viability at 70 h, 10 µM worked out at 92.3%. Further, the inhibition at 0.3 µM in [6] was -11.9%. The viability at 70 h, 3 µM in [7] turned out to be 95.2%. For the same compound, the inhibition at 3 µM in data set [8] turned out to be 4.4%.

The values are drawn from ChEMBL document CHEMBL2424597, “Diarylheptanoids with inhibitory effects on melanogenesis from the rhizomes of Curcuma comosa in B16 melanoma cells” (Bioorg Med Chem Lett, 2013).
